Test [1] relates to Peripheral blood mononuclear cells (PBMCs) mixed with mitomycin C treated RPMI1788 cells. As to the kind of experiment: Mixed lymphocyte reaction (MLR) assay, 3H-thymidine uptake.
Excerpt: In the MLR assay PBMCs from two individuals are mixed together in tissue culture for several days. […] In the one-way MLR test, the mononuclear cells from one of the individuals are inactivated (usually by treatment with mitomycin C or irradiation), thereby allowing only the untreated remaining population of mononuclear cells, such as lymphocytes, to proliferate in response to foreign histocompatibility antigens.
The immunosuppressive effect of test compounds was also investigated using MLR assays. Peripheral blood mononuclear cells (PBMCs) were isolated from heparinized blood of healthy donors by density-gradient centrifugation over Lymphoprep. […] RPMI1788 cells were treated with 30 μg/mL mitomycin C for 20 min at 37° C., washed four times with medium, and finally suspended in complete RPMI medium to a density of 0.45×10^6 cells/mL. An amount of 100 μL of each cell suspension was mixed with 20 μL of diluted compound. The mixed cells were cultured at 37° C. for 6 days in 5% CO2. […] Thereafter, the cells were harvested on glass filter paper and the counts per minute (cpm) determined in a liquid scintillation counter.
In test [2] the target is PI4KIIIβ (PI4KB, PI4K beta) (Homo sapiens, UniProt Q9UBF8). The test is described as follows: Commercial kinase activity assay (Invitrogen, ADP TR-FRET). Particulars: for inhibition at 10 µM: read-out: % inhibition of PI4KIIIβ @ 10 μM.
Description: PI4KB (PI4K beta) The 2× PI4KB (PI4K beta)/PI Lipid Kinase Substrate mixture was prepared in 50 mM HEPES pH 7.5, 0.1% CHAPS, 1 mM EGTA, 4 mM MgCl2. […] After a 60-minute development reaction incubation at room temperature, the fluorescence was read on plate reader and the data analyzed.
Test [3] deals with T1, PI3KCB (PI3K p110β/p85α (h)) (Homo sapiens, UniProt P42338).
T1 construct: purchased Millipore
As to the kind of experiment: Commercial kinase activity assay (Millipore, HTRF). In kind it is biochemical. Particulars: 10 μM test compound. How it is done: LOK (h) was incubated with 8 mM MOPS pH 7.0, 0.2 mM EDTA, 250 μM […], 10 mM MgAcetate and [γ-^33P-ATP] (specific activity approx. 500 cpm/pmol, concentration as required). The reaction was initiated by the addition of the MgATP mix. After incubation for 40 minutes at room temperature, the reaction was stopped by the addition of 3% phosphoric acid solution. 10 μL of the reaction was then spotted onto a P30 filtermat and washed three times for 5 minutes in 75 mM phosphoric acid and once in methanol prior to drying and scintillation counting. PI3K p110β/p85α (h) PI3K (p110β/p85α) (h) was incubated in assay buffer containing 10 μM phosphatidylinositol-4,5-bisphosphate and MgATP (concentration as required). The reaction was initiated by the addition of the MgATP mix. After incubation for 30 minutes at room temperature, the reaction was stopped by the addition of stop solution containing EDTA and biotinylated phosphatidylinositol-3,4,5-trisphosphate. Finally, detection buffer was added, which contains europium-labelled anti-GST monoclonal antibody, GST-tagged GRP1 PH domain and streptavidinallophycocyanin. The plate was then read in time-resolved fluorescence mode and the homogenous time-resolved fluorescence (HTRF®) signal determined according to the formula HTRF=10000×(Em665nm/Em620 nm). […]

A further test concerns the target T2, PAK1 (Homo sapiens, UniProt Q13153).
T2 construct: made in house; host or cells: E. coli BL21-derived host (T7 phage) or HEK-293
The test is described as follows: Commercial kinase activity assay (Invitrogen, fluorescence). As to conditions: 10 μM test compound. In kind it is biochemical.

The target in a further test is T3, LOK (h) (Homo sapiens, UniProt O94804).
T3 construct: purchased Millipore
T3 sequence (O94804 whole entry): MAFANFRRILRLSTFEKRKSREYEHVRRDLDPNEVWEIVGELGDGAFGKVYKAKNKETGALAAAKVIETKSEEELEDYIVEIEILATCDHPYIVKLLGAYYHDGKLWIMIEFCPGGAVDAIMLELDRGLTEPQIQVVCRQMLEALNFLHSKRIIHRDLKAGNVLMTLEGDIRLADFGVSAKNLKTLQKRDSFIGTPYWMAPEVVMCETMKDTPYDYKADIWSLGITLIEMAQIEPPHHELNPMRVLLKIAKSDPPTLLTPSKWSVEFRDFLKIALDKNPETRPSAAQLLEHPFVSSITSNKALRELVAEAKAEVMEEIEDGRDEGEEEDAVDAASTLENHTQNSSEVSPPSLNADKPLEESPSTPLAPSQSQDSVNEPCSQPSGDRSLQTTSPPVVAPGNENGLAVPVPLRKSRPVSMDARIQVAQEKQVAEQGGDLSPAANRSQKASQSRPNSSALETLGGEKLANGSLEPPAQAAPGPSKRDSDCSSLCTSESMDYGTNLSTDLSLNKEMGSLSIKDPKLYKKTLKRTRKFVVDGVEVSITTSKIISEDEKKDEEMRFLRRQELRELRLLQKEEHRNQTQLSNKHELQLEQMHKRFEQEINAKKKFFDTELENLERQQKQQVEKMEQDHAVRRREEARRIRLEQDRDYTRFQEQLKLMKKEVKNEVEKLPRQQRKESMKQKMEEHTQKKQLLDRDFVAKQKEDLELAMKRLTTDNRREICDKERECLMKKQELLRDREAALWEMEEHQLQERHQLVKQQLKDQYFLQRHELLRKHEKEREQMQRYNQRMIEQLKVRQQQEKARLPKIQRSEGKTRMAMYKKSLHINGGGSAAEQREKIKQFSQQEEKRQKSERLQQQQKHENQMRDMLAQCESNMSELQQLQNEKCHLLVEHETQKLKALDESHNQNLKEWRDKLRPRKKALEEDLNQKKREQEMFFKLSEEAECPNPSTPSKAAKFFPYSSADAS
As to the kind of experiment: Commercial kinase activity assay (Millipore, 33P-ATP filter). The format is biochemical. Particulars: 10 μM test compound. How it is done: (§1) LOK (h) was incubated with 8 mM MOPS pH 7.0, 0.2 mM EDTA, 250 μM […], 10 mM MgAcetate and [γ-^33P-ATP] (specific activity approx. 500 cpm/pmol, concentration as required). The reaction was initiated by the addition of the MgATP mix. After incubation for 40 minutes at room temperature, the reaction was stopped by the addition of 3% phosphoric acid solution. 10 μL of the reaction was then spotted onto a P30 filtermat and washed three times for 5 minutes in 75 mM phosphoric acid and once in methanol prior to drying and scintillation counting. PI3K p110β/p85α (h) PI3K (p110β/p85α) (h) was incubated in assay buffer containing 10 μM phosphatidylinositol-4,5-bisphosphate and MgATP (concentration as required). The reaction was initiated by the addition of the MgATP mix. After incubation for 30 minutes at room temperature, the reaction was stopped by the addition of stop solution containing EDTA and biotinylated phosphatidylinositol-3,4,5-trisphosphate. Finally, detection buffer was added, which contains europium-labelled anti-GST monoclonal antibody, GST-tagged GRP1 PH domain and streptavidinallophycocyanin. The plate was then read in time-resolved fluorescence mode and the homogenous time-resolved fluorescence (HTRF®) signal determined according to the formula HTRF=10000×(Em665nm/Em620 nm). YSK4 (h) YSK4 (h) was incubated with 8 mM MOPS pH 7.0, 0.2 mM EDTA, 250 […], 10 mM MgAcetate and [γ-^33P-ATP] (specific activity approx. 500 cpm/pmol, concentration as required). The reaction was initiated by the addition of the MgATP mix. After incubation for 40 minutes at room temperature, the reaction was stopped by the addition of 3% phosphoric acid solution. 10 μL of the reaction was then spotted onto a P30 filtermat and washed three times for 5 minutes in 75 mM phosphoric acid and once in methanol prior to drying and scintillation counting. PI4KA (PI4K alpha) The 2× PI4KA (PI4K alpha)/PI Lipid Kinase Substrate mixture was prepared in 20 mM Tris, pH 7.5, 0.4% Triton X-100, 5 mM MgCl2, 0.5 mM EGTA. The final 10 μL Kinase Reaction consisted of 75-300 ng PI4KA (PI4K alpha) and 100 μM PI Lipid Kinase Substrate in 7.5 mM HEPES, 10 mM Tris, pH 7.5, 0.2% Triton X-100, 2.5 mM MgCl2, 0.25 mM EGTA. After the 1 hour Kinase Reaction incubation, 5 μL of Detection Mix consisting of a europium labeled anti-ADP antibody, an Alexa Fluor® 647 labeled ADP tracer, and EDTA (to stop the kinase reaction) was added to the assay well. ADP formed by the kinase reaction (in the absence of an inhibitor) displaced the Alexa Fluor® 647 labeled ADP tracer from the antibody, resulting in a decrease in the TR-FRET signal. […] PI4KB (PI4K beta) The 2× PI4KB (PI4K beta)/PI Lipid Kinase Substrate mixture was prepared in 50 mM HEPES pH 7.5, 0.1% CHAPS, 1 mM EGTA, 4 mM MgCl2. […]

The target of a further test is T4, YSK4 (h) (Homo sapiens, UniProt Q56UN5).
T4 construct: purchased Millipore
T4 sequence (Q56UN5 1-1328): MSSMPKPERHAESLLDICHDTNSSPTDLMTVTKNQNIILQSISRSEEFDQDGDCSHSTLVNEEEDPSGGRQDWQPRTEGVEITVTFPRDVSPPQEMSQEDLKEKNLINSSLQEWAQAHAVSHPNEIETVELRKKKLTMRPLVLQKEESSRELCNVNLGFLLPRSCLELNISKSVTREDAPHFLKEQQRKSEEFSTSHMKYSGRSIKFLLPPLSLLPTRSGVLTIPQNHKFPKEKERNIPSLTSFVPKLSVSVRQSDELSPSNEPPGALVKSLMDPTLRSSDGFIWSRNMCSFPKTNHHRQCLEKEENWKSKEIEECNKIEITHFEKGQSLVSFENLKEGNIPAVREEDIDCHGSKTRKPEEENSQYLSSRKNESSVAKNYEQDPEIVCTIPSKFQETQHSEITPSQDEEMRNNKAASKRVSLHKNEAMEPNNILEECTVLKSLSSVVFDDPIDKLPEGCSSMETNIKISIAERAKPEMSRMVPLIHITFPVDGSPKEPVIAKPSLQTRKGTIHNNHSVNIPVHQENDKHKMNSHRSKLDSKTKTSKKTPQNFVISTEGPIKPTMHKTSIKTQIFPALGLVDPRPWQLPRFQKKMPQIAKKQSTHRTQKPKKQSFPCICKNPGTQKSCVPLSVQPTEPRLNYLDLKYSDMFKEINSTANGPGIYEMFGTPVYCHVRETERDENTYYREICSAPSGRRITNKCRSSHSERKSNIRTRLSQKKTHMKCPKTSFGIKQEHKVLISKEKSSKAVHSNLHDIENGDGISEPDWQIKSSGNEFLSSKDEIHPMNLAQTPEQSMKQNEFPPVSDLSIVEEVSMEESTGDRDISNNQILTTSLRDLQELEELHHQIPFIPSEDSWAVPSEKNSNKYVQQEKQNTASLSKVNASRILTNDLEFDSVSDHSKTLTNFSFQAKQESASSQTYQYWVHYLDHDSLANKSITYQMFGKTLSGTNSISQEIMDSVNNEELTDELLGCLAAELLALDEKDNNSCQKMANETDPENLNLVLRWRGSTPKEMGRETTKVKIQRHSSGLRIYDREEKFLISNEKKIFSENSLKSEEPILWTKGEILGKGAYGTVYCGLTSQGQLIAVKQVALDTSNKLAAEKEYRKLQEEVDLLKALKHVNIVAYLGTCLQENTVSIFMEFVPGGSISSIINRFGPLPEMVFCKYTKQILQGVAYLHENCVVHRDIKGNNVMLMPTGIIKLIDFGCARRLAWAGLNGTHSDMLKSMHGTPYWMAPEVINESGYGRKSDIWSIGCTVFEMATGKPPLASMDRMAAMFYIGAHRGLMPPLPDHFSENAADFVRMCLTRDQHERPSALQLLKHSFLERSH
Described as above. The format is biochemical. As to conditions: 10 μM test compound. How it is done:
as §1

For another test, the target named is T5, PI4KA (PI4K alpha) (Homo sapiens, UniProt P42356).
T5 construct: purchased Invitrogen
T5 sequence (P42356 whole entry): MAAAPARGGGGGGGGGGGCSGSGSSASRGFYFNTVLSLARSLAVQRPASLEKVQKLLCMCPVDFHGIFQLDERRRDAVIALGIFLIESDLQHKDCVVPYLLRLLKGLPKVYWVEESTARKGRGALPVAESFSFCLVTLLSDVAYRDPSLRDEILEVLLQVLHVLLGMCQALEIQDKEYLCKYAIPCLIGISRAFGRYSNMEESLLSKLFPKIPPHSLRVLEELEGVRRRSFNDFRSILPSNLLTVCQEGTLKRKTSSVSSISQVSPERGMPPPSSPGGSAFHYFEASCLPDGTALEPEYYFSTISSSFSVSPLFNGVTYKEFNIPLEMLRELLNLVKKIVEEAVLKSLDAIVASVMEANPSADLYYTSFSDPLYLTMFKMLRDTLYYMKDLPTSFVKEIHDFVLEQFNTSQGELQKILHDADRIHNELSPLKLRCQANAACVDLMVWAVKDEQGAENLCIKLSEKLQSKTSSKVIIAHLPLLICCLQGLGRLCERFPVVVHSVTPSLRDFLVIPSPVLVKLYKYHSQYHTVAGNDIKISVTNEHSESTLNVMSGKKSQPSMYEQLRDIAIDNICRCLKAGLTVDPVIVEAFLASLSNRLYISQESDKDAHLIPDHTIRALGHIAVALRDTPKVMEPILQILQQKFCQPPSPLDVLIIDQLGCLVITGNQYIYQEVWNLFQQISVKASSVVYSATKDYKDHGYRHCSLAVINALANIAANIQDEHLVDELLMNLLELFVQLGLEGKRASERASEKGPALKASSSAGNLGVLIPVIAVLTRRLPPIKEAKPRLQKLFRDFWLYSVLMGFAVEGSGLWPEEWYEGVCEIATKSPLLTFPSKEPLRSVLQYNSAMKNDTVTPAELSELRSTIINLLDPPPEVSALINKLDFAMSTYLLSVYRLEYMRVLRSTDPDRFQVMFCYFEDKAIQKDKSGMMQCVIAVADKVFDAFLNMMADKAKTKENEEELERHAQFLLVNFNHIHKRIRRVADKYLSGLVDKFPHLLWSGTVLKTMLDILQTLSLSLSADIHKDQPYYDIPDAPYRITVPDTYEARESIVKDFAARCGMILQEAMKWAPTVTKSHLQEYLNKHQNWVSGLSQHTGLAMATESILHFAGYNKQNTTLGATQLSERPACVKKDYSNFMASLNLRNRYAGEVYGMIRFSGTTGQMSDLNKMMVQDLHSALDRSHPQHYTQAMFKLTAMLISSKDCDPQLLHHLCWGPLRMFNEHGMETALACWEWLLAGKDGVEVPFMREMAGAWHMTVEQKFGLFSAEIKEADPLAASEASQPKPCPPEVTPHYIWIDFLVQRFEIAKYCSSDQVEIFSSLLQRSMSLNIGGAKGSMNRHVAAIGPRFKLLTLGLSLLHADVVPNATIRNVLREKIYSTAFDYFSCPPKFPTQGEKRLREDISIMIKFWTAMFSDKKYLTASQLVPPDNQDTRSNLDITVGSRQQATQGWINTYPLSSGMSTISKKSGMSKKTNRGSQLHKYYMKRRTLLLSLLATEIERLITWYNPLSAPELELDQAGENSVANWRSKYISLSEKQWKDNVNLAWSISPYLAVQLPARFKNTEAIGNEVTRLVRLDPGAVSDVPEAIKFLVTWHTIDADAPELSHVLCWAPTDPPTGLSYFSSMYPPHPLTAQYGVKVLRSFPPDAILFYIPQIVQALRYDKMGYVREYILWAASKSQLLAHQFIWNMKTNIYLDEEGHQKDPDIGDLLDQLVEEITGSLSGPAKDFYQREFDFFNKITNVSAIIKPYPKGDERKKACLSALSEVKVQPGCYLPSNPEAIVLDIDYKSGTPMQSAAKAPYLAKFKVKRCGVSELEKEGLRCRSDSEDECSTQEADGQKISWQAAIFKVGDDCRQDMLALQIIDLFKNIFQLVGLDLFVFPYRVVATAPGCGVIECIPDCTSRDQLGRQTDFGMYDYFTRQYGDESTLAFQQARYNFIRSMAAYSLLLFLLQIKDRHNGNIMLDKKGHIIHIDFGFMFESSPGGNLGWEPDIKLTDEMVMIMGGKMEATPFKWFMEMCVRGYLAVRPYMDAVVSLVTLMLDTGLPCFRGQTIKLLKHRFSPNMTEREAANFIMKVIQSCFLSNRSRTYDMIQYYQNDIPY
As to the kind of experiment: Commercial kinase activity assay (Invitrogen, ADP TR-FRET). In kind it is biochemical. As to conditions: 10 μM test compound. A general note: Time-resolved FRET reads energy transfer from a long-lived donor to a nearby acceptor.

For test [4], the system named is cardiac allograft rejection. The test is described as follows: Cardiac allograft transplantation model, treatment day -1 to day 30 (Examples 7 and 8). In kind it is in vivo, mice (C57BL/6 donor, Balb/c recipient). Particulars: Example 8.
Description: Inbreed C57BL/6 H-2b and Balb/c H-2d female mice, 8-10 weeks old, 20-25 g, were used as donor and recipient, respectively. Heterotopic heart transplantation was performed by implanting the donor heart on the neck of recipients using conventional microsurgery techniques. Graft beating was checked daily by inspection and palpation. Cessation of beating indicated graft rejection, which was confirmed by histological examination. Housing and all experimental animal procedures were approved by the Institutional Animal Care and Research Advisory Committee of the KU Leuven.
Test [5] has as its system cardiac allograft rejection. The test is described as follows: Cardiac allograft transplantation and tolerance model, treatment day 0 to day 30 (Example 9).
Excerpt: The activity of test compound in a mouse model of cardiac allograft transplantation experiment was investigated. […] Animals with beating graft at day 60 were rechallenged with a second graft from the same strain donor or from a third party donor.
To evaluate the operational tolerance phenotype, animals with functional graft at day 60 were challenged with a second graft from the same donor strain or from a third party. No treatment was applied.
Inbreed C57BL/6 H-2^b and Balb/c H-2^d female mice, 8-10 weeks old, 20-25 g, were used as donor and recipient, respectively. Heterotopic heart transplantation was performed by implanting the donor heart on the neck of recipients using conventional microsurgery techniques. Graft beating was checked daily by inspection and palpation. Cessation of beating indicated graft rejection. The third party donor was C3H H-2^k female mice, 8-10 weeks old, 20-25 gr.
Treatment started the day of transplantation (day 0) until day 30 post transplantation.
Test [6] concerns collagen-induced arthritis. The test is described as follows: Collagen-induced arthritis model. The format is in vivo, DBA1 male mice. Particulars: 40 mg/kg/d oral gavage. How it is done: The activity of test compound in an in vivo model, the collagen-induced arthritis model, was investigated. […] DBA1 male mice, 8-10 weeks old, were distributed in 2 groups according to the treatment. Twelve animals received daily treatment with vehicle (1% methylcellulose), twelve others received compound (3) at 40 mg/kg/d in 1% methylcellulose. The treatment initiation started the day before the intradermal injection at the base of the tail of 100 μg of emulsified chicken collagen II in presence of complete Freund adjuvant and added heat-killed Mycobacterium butyricum. Daily inspection of the mice was performed to weight animals and quantify disease score according to the following scale (score 0: normal; score 1: redness and/or swelling in one joint; score 2: redness and/or swelling in more than one joint; score 3: redness and/or swelling in the entire paw; score 4: deformity and/or ankylosis). On the day of sacrifice (day 42) serum were collected and anti-collagen II antibody titers were determined by ELISA. Joints were harvested, fixed in 6% paraformaldehyde, decalcified in formic acid 6% for 48 h, sliced and stained by hematoxylin and eosin staining. Hyperplasia of the synovium, infiltration of mono and polymorphonuclear cells and pannus formation parameters were scored blindly.

For test [7], the system named is murine splenocytes stimulated with α-CD3 antibody. The test is described as follows: Cytokine secretion after α-CD3 stimulation. The format is cell-based, Balb/C mice. As to conditions: Mus musculus, Splenocyte, 24 h. How it is done:
The ability of test compounds to inhibit cytokine release by murine splenocytes after stimulation with α-CD3 antibody was also investigated.
2×10^6 splenocytes from Balb/C female mice, 8-10 weeks old in 220 μl of complete medium were stimulated with 0.1 μg of hamster anti mouse CD3ε antibody in presence of various concentrations of test compounds. After 24 h of incubation at 37° C., 5% CO2, supernatant were collected and cytokine titers were determined by flow cytometry according manufacturer protocols (MCB United States, Arlington, Mass., USA).
The results are shown in FIG. 1 compared to a DMSO negative control (▾). […].

[8] abbreviates: RPMI-1788, 144 h, read-out: IC50 MLR, 6 days culture.
Where [9] appears, read: animals with functional graft at day 60, no treatment, n=2.

The text below walks through data of US9301961B2, “Autoimmune and inflammatory disorder therapy” (Katholieke Universiteit Leuven, K.U. Leuven R&D, priority 2011, dated 2016).

Read-outs that look alike come from different tables or passages of the source. Where only a bound is given, the exact number is not on record here.

Sequence of PI4KIIIβ (PI4KB, PI4K beta) (Q9UBF8 whole entry): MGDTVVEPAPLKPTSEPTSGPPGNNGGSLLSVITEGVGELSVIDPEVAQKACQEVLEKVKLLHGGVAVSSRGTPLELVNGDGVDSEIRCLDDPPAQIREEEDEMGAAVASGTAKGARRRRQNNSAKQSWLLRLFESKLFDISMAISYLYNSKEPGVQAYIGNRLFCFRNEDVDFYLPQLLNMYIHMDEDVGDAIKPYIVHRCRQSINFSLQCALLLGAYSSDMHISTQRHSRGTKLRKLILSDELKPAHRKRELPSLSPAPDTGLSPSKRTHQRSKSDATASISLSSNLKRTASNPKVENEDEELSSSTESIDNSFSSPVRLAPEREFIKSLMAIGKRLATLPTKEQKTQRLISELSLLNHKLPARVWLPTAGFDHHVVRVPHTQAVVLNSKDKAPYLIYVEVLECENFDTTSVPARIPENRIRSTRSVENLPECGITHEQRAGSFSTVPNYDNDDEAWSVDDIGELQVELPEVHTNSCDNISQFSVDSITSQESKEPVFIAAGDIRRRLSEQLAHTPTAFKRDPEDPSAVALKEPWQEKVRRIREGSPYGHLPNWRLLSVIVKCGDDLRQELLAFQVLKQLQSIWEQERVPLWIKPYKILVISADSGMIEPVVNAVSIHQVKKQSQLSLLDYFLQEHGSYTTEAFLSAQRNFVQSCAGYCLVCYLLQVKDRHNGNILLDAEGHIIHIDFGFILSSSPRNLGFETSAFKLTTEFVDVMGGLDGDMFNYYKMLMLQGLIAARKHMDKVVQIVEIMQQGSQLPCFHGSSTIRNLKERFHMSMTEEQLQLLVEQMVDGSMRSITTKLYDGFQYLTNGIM
T2 sequence (Q13153 whole entry): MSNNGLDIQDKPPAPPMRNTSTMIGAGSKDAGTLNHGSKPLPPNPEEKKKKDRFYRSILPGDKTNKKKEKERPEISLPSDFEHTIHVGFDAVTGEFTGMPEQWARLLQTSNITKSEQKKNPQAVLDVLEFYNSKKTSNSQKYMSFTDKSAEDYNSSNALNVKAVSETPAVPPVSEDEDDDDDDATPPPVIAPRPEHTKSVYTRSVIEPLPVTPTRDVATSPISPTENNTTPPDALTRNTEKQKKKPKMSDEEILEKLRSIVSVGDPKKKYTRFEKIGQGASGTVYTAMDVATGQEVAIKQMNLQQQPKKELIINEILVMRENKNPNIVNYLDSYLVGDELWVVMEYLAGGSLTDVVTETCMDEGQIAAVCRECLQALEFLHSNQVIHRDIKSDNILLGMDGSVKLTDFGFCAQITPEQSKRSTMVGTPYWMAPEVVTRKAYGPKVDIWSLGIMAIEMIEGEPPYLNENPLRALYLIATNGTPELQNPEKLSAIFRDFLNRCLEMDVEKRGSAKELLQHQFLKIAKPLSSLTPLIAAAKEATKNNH

What is called IC50 is the concentration that gives 50% inhibition. Regarding `CC(=O)Nc1nc(C)c(-c2ccc(Cl)c(S(=O)(=O)NCCO)c2)s1` [PIK93, reference compound], the IC50 in test [1] (setting [8]) came out at 401 nM.

For the compound `COc1ccc(-c2c(C)nn3c(NCCN4CCOCC4)cc(C)nc23)cc1OC` [T-00127-HEV1, reference compound], in test [1] (RPMI-1788, 144 h, read-out: IC50 MLR), the IC50 worked out at 842 nM.

As usually defined, the inhibition is the percentage by which the read-out fell short of the control. `Cc1cccc(NC(=O)N2CCN(c3nc(N)nc4sc(-c5cccnc5)nc34)CC2)c1` [formula (2), 4-[5-amino-2-(pyridin-3-yl)thiazolo[5,4-d]pyrimidin-7-yl]-N-m-tolylpiperazine-1-carboxamide] returned an IC50 in test [2] of 14.3 nM. Also, the inhibition at 10 µM in test [2] was 99.5%. In addition, the Kinase activity in [3] is 82 percentage of control; at PAK1, 108 percentage of control; at LOK (h), 98 percentage of control; on YSK4 (h) it was 79 percentage of control; at PI4KA (PI4K alpha), 90 percentage of control.

Regarding `Cc1ccc(NC(=O)N2CCN(c3nc(N)nc4sc(-c5cccnc5)nc34)CC2)cc1` [formula (3)], the “Surviving days (cardiac graft)” value in [4] (20 mg/kg/d daily gavage, individual animals, 20 mg/kg/day) was “up to 13 days”. For the same compound, in test [4] (40 mg/kg per day), the “grafts continuously functioning after stopping the treatment on day 30” value is on record as 3/4 and the “grafts with continuous survival while treatment continued” value is recorded as 4/6. The “grafts with prolonged survival at day 30” value in [5] (Example 9, each group (40, 50, 60 mg/kg/d)) was 3 out of 6. Moreover, in test [5] (setting [9]), the “day of rejection of second graft from third party donor” value is 8 days and the “time second graft from same donor strain was functional” value is reported as “more than 90 days”. Also, in test [6] (joints day 42), the “histological scores (hyperplasia, infiltration, pannus)” value was “reduced”. In [6] (preventive, vs vehicle), the “onset of arthritic symptoms” value is listed as “delay the onset of arthritic symptoms” and the symptom severity entry is listed as “decrease symptom severity”. Moreover, the “anti-CII IgG titre” value in [6] (serum day 42) is “reduced”. Moreover, the IC50 in test [7] (read-out: IC50 for inhibition of IFNγ release) was less than 1 nM. Further, the IC50 in test [7] (read-out: IC50 for inhibition of IL2 release) was less than 1 nM.

Take `Nc1nc(N2CCN(C(=O)COc3ccc(F)cc3)CC2)c2nc(-c3cccnc3)sc2n1` [formula (4)]: the IC50 in [2] was 21.8 nM; in [1] (setting [8]), less than 50 nM; in test [1] (read-out: IC50 MLR, 6 days culture), 25 nM. In test [2], the inhibition at 10 µM was 95%.
